≈ marks a conversion by molar mass, not a printed value.
Assays:
[1] = Reducing power (RP) assay; design: concentration or dose not given beside the values
Description: Herein, the iron (III) is not free in the solution as it was in the FRAP assay and is complexed by cyanide ions. The evaluation of the reducing power (RP) was performed at a pH closer to neutral (pH = 6.6); this is different from the FRAP test, which is performed in an acidic environment. Against a blank sample, the absorbances were measured at λ = 700 nm. The followed protocol was based on the adaptation of previously reported protocols and was previously reported by our group. Using Equation (4), we calculated the reducing power of the 5a–d and 6a–d compounds as a percentage of the reference compounds activity.
The evaluated compounds can reduce ferricyanide to ferrocyanide, in the presence of ferric ions, resulting in the Perl’s Prussian which gives blue. The higher the percentage of reducing power, the higher was the absorbance that was measured due to a higher amount of colored complex resulting from the reaction.

[2] = ABTS˙+ radical scavenging assay
Description: The stock solutions (1 mg/mL) of the tested compounds and the controls were obtained, by dissolving the substances in dimethyl sulfoxide (DMSO). Using Jasco V-530, an UV-VIS spectrophotometer (Jasco International Co., Ltd., Tokyo, Japan), we performed the colorimetric determinations in low-volume single-use 10 mm width cuvettes.
The assays were performed in triplicate and the results are presented as averages for each assay.

[3] = Phosphomolybdate assay for total antioxidant capacity (TAC); design: concentration or dose not given beside the values
Text: Using the phosphomolybdate assay, we determined the total antioxidant capacity (TAC) of the tested compounds. We measured the solutions’ absorbances against a blank sample at λ = 695 nm, using a previously reported procedure by our group, based on initial literature reports. Using Equation (4), we calculated the TAC of 5a–d and 6a–d compounds.
At acidic pH, the tested compounds transfer one electron to Mo^6+ to reduce it to Mo^5+.

[4] = NO˙ radical scavenging assay (Griess reaction); settings: PBS pH 7.4, sodium nitroprusside
Outline: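 Nitric oxide radicals were generated by decomposition of sodium nitroprusside in PBS at pH 7.4 in the presence of test compounds. Uncaptured NO˙ was detected by Griess reaction with sulfanilic acid and naphthyl ethylenediamine, forming an azo dye read at 546 nm.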

[5] = Ferric reducing antioxidant potential (FRAP) assay; design: concentration or dose not given beside the values
Description: In the ferric reducing antioxidant potential (FRAP) assay, in comparison with a blank sample prepared from DMSO mixed with FRAP reagent, the absorbance of the solutions was measured at λ = 593 nm. The compounds were tested according to a modified method proposed initially by Benzie and Strain [31]. Using Equation (4), we calculated the reducing antioxidant potential of 5a–d and 6a–d as a percentage of the activity of the reference compounds:(4) % of control activity=sample absorbance/reference absorbance×100
Ferrous ions resulting from the reduction of ferric ions in the presence of an antioxidant compound form a blue-colored complex (Fe^2+-TPTZ) at pH = 3.6 with tripyridyltriazine (2,4,6-tris(2-pyridyl)-s-triazine). The intensity of the blue complex formed is proportional to the number of ferrous ions. Compounds 5a, 5c and 5d expressed a good electron donation capacity.

[6] = tested on: A549 (lung adenocarcinoma) cells; assay: Cytotoxicity, Alamar blue assay, A549 cells; type: cell-based; settings: Homo sapiens, 24 h exposure
Outline: (§1)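 Cells were seeded to reach 70–80% confluence at 24 h, then exposed to compounds at 12.5–100 µg/mL for 24 h. Viability was read by resazurin (200 µM, 4 h) fluorescence relative to 0.2% DMSO control. IC50 came from a 4-parameter logistic fit.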

[7] = tested on: normal human foreskin fibroblasts (BJ); assay: Cytotoxicity, Alamar blue assay, BJ cells; type: cell-based; settings: Homo sapiens, Fibroblast; 24 h exposure, Alamar blue
Outline: as §1

CCCCn1c(SCC(=O)NN=C(C)c2ccc(O)cc2O)nc2ccccc2c1=O [Compound 6d, 2-((3-butyl-4-oxo-3,4-dihydroquinazolin-2-yl)thio)-N’-(1-(2,4-dihydroxyphenyl)ethylidene)acetohydrazide]
melting point: 225 °C | RP, % of Activity of Trolox ([1]; relative to Trolox): 24.53% | RP, % of Activity of Ascorbic Acid ([1]; relative to ascorbic acid): 16.84% | IC50 [2]: 11.7 µM | IC50 (ABTS˙^+ scavenging) [2]: 5.17 µg/mL (≈ 11.7 µM) | % of ABTS˙^+ Scavenging ([2]; 0.83 µg/mL): 29.08% | % of ABTS˙^+ Scavenging ([2]; 1.67 µg/mL): 33.32% | % of ABTS˙^+ Scavenging ([2]; 3.33 µg/mL): 40.37% | % of ABTS˙^+ Scavenging ([2]; 4.99 µg/mL): 50.24% | % of ABTS˙^+ Scavenging ([2]; 6.66 µg/mL): 57.59% | % of ABTS˙^+ Scavenging ([2]; 9.99 µg/mL): 75.41% | % of ABTS˙^+ Scavenging ([2]; 13.32 µg/mL): 85.79% | TAC, % of Activity of Trolox ([3]; relative to Trolox): 76.63% | TAC, % of Activity of Ascorbic Acid ([3]; relative to ascorbic acid): 39.72% | % of NO˙ Scavenged [4]: 30.71% | FRAP, % of Activity of Trolox ([5]; relative to Trolox): 27.95% | FRAP, % of Activity of Ascorbic Acid ([5]; relative to ascorbic acid): 24.36% | IC50 [6]: 32.4 µg/mL | IC50 [7]: > 100 µg/mL

Source: publication PMC9867241, “Antioxidant and Cytotoxic Activity of New Polyphenolic Derivatives of Quinazolin-4(3H)-one: Synthesis and In Vitro Activities Evaluation” (Pharmaceutics, 2022)
